In ChEMBL document CHEMBL4477231, “Design, synthesis and antiproliferative activity studies of novel dithiocarbamate-chalcone derivates” (Bioorg Med Chem Lett, 2016):
Active and inactive are the calls of the source. The rule behind the calls is not given here.

Key:
SK-N-SH [1] = assay: Cytotoxicity against human SK-N-SH cells assessed as cell growth inhibition after 72 hrs by MTT assay; format: functional, cell-based
MGC-803 = assay: Cytotoxicity against human MGC803 cells assessed as cell growth inhibition after 72 hrs by MTT assay; format: functional, cell-based; conditions: MGC-803, 72 h
ECa-109 cell line = assay: Cytotoxicity against human EC109 cells assessed as cell growth inhibition after 72 hrs by MTT assay; format: functional, cell-based; conditions: ECa-109, 72 h
GES1 = assay: Cytotoxicity against human GES-1 cells assessed as reduction in cell viability after 72 hrs by MTT assay; format: cell-based; conditions: GES1, 72 h
SK-N-SH [2] = assay: Cell cycle arrest in human SK-N-SH cells assessed as accumulation at G2/M phase at 2.5 uM after 48 hrs by propidium iodide staining based flow cytometry (reference value: 18.35 %); format: functional
SK-N-SH [3] = assay: Cell cycle arrest in human SK-N-SH cells assessed as accumulation at G0/G1 phase at 2.5 uM after 24 hrs by propidium iodide staining based flow cytometry (reference value: 50.26 %); format: functional
SK-N-SH [4] = assay: Cell cycle arrest in human SK-N-SH cells assessed as accumulation at G2/M phase at 5 uM after 48 hrs by propidium iodide staining based flow cytometry (reference value: 18.35 %); format: functional
SK-N-SH [5] = assay: Cell cycle arrest in human SK-N-SH cells assessed as accumulation at G0/G1 phase at 5 uM after 48 hrs by propidium iodide staining based flow cytometry (reference value: 54.35 %); format: functional
SK-N-SH [6] = assay: Cell cycle arrest in human SK-N-SH cells assessed as accumulation at G0/G1 phase at 2.5 uM after 48 hrs by propidium iodide staining based flow cytometry (reference value: 54.35 %); format: functional
SK-N-SH [7] = assay: Cell cycle arrest in human SK-N-SH cells assessed as accumulation at G2/M phase at 2.5 uM after 24 hrs by propidium iodide staining based flow cytometry (reference value: 17 %); format: functional
SK-N-SH [8] = assay: Induction of apoptosis in human SK-N-SH cells assessed as increase in p53 expression at 2.5 to 5 uM after 48 hrs; format: functional, cell-based
SK-N-SH [9] = assay: Cell cycle arrest in human SK-N-SH cells assessed as accumulation at G2/M phase at 5 uM after 24 hrs by propidium iodide staining based flow cytometry (reference value: 17 %); format: functional
SK-N-SH [10] = assay: Induction of apoptosis in human SK-N-SH cells assessed as reduction in procaspase-3 level at 2.5 to 5 uM after 48 hrs; format: functional, cell-based
SK-N-SH [11] = assay: Cell cycle arrest in human SK-N-SH cells assessed as accumulation at S phase at 5 uM after 24 hrs by propidium iodide staining based flow cytometry (reference value: 30.91 %); format: functional
SK-N-SH [12] = assay: Cell cycle arrest in human SK-N-SH cells assessed as accumulation at G0/G1 phase at 5 uM after 24 hrs by propidium iodide staining based flow cytometry (reference value: 50.26 %); format: functional
SK-N-SH [13] = assay: Induction of apoptosis in human SK-N-SH cells assessed as formation of apoptotic bodies at 5 uM after 24 to 48 hrs by Hoechst 33258 staining based fluorescence microscopy; format: functional, cell-based
SK-N-SH [14] = assay: Induction of apoptosis in human SK-N-SH cells at 5 uM after 24 hrs by Annexin V-FITC/propidium iodide staining based flow cytometry relative to control; format: functional
SK-N-SH [15] = assay: Induction of apoptosis in human SK-N-SH cells assessed as round cells at 5 uM after 24 to 48 hrs by Hoechst 33258 staining based fluorescence microscopy; format: functional, cell-based
SK-N-SH [16] = assay: Induction of apoptosis in human SK-N-SH cells assessed as chromatin shrinkage at 5 uM after 24 to 48 hrs by Hoechst 33258 staining based fluorescence microscopy; format: functional, cell-based
SK-N-SH [17] = assay: Induction of apoptosis in human SK-N-SH cells at 5 uM after 48 hrs by Annexin V-FITC/propidium iodide staining based flow cytometry relative to control; format: functional
SK-N-SH [18] = assay: Induction of apoptosis in human SK-N-SH cells at 5 uM by Annexin V-FITC/propidium iodide staining based flow cytometry; format: functional, cell-based; conditions: TDE = time-dependent effect
SK-N-SH [19] = assay: Cell cycle arrest in human SK-N-SH cells assessed as accumulation at S phase at 2.5 uM after 24 hrs by propidium iodide staining based flow cytometry (reference value: 30.91 %); format: functional
SK-N-SH [20] = assay: Cell cycle arrest in human SK-N-SH cells assessed as accumulation at S phase at 2.5 uM after 48 hrs by propidium iodide staining based flow cytometry (reference value: 27.41 %); format: functional
SK-N-SH [21] = assay: Cell cycle arrest in human SK-N-SH cells assessed as accumulation at S phase at 5 uM after 48 hrs by propidium iodide staining based flow cytometry (reference value: 27.41 %); format: functional

Question: `O=C(/C=C/c1ccc(Cl)cc1)c1ccc(OCCSC(=S)N2CCOCC2)cc1` was tested. Which IC50 (SK-N-SH [1]) did it give?
Answer: 11.7 µM

Question: And the IC50 (MGC-803)?
Answer: 11.5 µM

Question: And the IC50 (ECa-109 cell line)?
Answer: 15.4 µM

Question: For `COc1cc(/C=C/C(=O)c2ccc(OCCCSC(=S)N3CCN(C)CC3)cc2)cc(OC)c1OC`, which IC50 (GES1) is on record?
Answer: > 64 µM

Question: What about the Activity (SK-N-SH [2]) of the same compound?
Answer: 13.81%

Question: And the Activity (SK-N-SH [3])?
Answer: 50.03%

Question: What about the Activity (SK-N-SH [4]) of the same compound?
Answer: 10.54%

Question: And the IC50 (SK-N-SH [1])?
Answer: 2.03 µM

Question: What about the Activity (SK-N-SH [5]) of the same compound?
Answer: 74.85%

Question: What about the Activity (SK-N-SH [6]) of the same compound?
Answer: 59.64%

Question: And the Activity (SK-N-SH [7])?
Answer: 18.55%

Question: What about the Activity (SK-N-SH [8]) of the same compound?
Answer: Active

Question: And the Activity (SK-N-SH [9])?
Answer: 6.11%

Question: And the Activity (SK-N-SH [10])?
Answer: Active

Question: What about the Activity (SK-N-SH [11]) of the same compound?
Answer: 25.26%

Question: And the Activity (SK-N-SH [12])?
Answer: 68.19%

Question: What about the Activity (SK-N-SH [13]) of the same compound?
Answer: Active

Question: And the Activity (SK-N-SH [14])?
Answer: 20.6%

Question: And the Activity (SK-N-SH [15])?
Answer: Active

Question: What about the IC50 (MGC-803) of the same compound?
Answer: 7.37 µM

Question: And the Activity (SK-N-SH [16])?
Answer: Active

Question: What about the Activity (SK-N-SH [17]) of the same compound?
Answer: 36.8%

Question: What about the IC50 (ECa-109 cell line) of the same compound?
Answer: 7.43 µM

Question: What about the Activity (SK-N-SH [18]) of the same compound?
Answer: Tde

Question: What about the Activity (SK-N-SH [19]) of the same compound?
Answer: 31.19%

Question: What about the Activity (SK-N-SH [20]) of the same compound?
Answer: 26.02%

Question: What about the Activity (SK-N-SH [21]) of the same compound?
Answer: 14.22%

Question: Which results are given for `COc1cc(/C=C/C(=O)c2ccc(OCCSC(=S)N3CCN(C)CC3)cc2)cc(OC)c1OC`?
Answer: IC50 (GES1): > 64 µM; IC50 (SK-N-SH [1]): 2.46 µM; IC50 (MGC-803): 8.28 µM; IC50 (ECa-109 cell line): 10 µM

Question: What does the source list for `COc1cc(/C=C/C(=O)c2ccc(OCCCSC(=S)N3CCCC3)cc2)cc(OC)c1OC`?
Answer: IC50 (SK-N-SH [1]): 12.8 µM; IC50 (MGC-803): 14.5 µM; IC50 (ECa-109 cell line): 11.1 µM

Question: `COc1cc(/C=C/C(=O)c2ccc(OCCSC(=S)N3CCCC3)cc2)cc(OC)c1OC` was tested. Which IC50 (SK-N-SH [1]) did it give?
Answer: 12.1 µM

Question: What about the IC50 (MGC-803) of the same compound?
Answer: 31.7 µM

Question: And the IC50 (ECa-109 cell line)?
Answer: 10.7 µM

Question: For `O=C(/C=C/c1ccc(Cl)cc1)c1ccc(OCCCSC(=S)N2CCCCC2)cc1`, which IC50 (SK-N-SH [1]) is on record?
Answer: 32.2 µM

Question: And the IC50 (MGC-803)?
Answer: 56.8 µM

Question: And the IC50 (ECa-109 cell line)?
Answer: 42.6 µM

Question: What does the source list for `O=c1[nH]cc(F)c(=O)[nH]1` [FLUOROURACIL]?
Answer: IC50 (SK-N-SH [1]): 9.84 µM; IC50 (MGC-803): 7.21 µM

Question: Which results are given for `COc1ccc(/C=C/C(=O)c2ccc(OCCCSC(=S)N3CCN(C)CC3)cc2)cc1`?
Answer: IC50 (SK-N-SH [1]): 29.5 µM; IC50 (MGC-803): 19.4 µM; IC50 (ECa-109 cell line): > 100 µM

Question: Which results are given for `CN1CCN(C(=S)SCCCOc2ccc(C(=O)/C=C/c3ccc(Cl)cc3)cc2)CC1`?
Answer: IC50 (SK-N-SH [1]): 31.9 µM; IC50 (MGC-803): 29.4 µM; IC50 (ECa-109 cell line): 34.2 µM

Question: How did the IC50 (SK-N-SH [1]) turn out when `O=C(/C=C/c1cc(F)cc(F)c1)c1ccc(OCCCSC(=S)N2CCCC2)cc1` was run?
Answer: 36.1 µM

Question: And the IC50 (MGC-803)?
Answer: 28.4 µM

Question: What about the IC50 (ECa-109 cell line) of the same compound?
Answer: 28.8 µM

Question: With `O=C(/C=C/c1ccc(Cl)cc1)c1ccc(OCCSC(=S)N2CCCC2)cc1` as the compound, how does the IC50 (SK-N-SH [1]) read?
Answer: 18.3 µM

Question: What about the IC50 (MGC-803) of the same compound?
Answer: 47.9 µM

Question: And the IC50 (ECa-109 cell line)?
Answer: 27.8 µM

Question: How did the IC50 (SK-N-SH [1]) turn out when `O=C(/C=C/c1cccs1)c1ccc(OCCSC(=S)N2CCCC2)cc1` was run?
Answer: 19.1 µM

Question: What about the IC50 (MGC-803) of the same compound?
Answer: 32.4 µM

Question: And the IC50 (ECa-109 cell line)?
Answer: 18.2 µM

Question: How did the IC50 (SK-N-SH [1]) turn out when `CN1CCN(C(=S)SCCCOc2ccc(C(=O)/C=C/c3cc(Cl)cc(Cl)c3)cc2)CC1` was run?
Answer: 24.6 µM

Question: What about the IC50 (MGC-803) of the same compound?
Answer: 19.4 µM

Question: What about the IC50 (ECa-109 cell line) of the same compound?
Answer: 12.4 µM

Question: For `O=C(/C=C/c1cccnc1)c1ccc(OCCCSC(=S)N2CCCC2)cc1`, which IC50 (SK-N-SH [1]) is on record?
Answer: 24.5 µM

Question: What about the IC50 (MGC-803) of the same compound?
Answer: 19.5 µM

Question: And the IC50 (ECa-109 cell line)?
Answer: 29.8 µM

Question: Which IC50 (SK-N-SH [1]) does the source give for `O=C(/C=C/c1ccc(Cl)cc1)c1ccc(OCCSC(=S)N2CCCCC2)cc1` here?
Answer: 27.4 µM

Question: What about the IC50 (MGC-803) of the same compound?
Answer: 12.8 µM

Question: And the IC50 (ECa-109 cell line)?
Answer: 26.1 µM

Question: `COc1cc(/C=C/C(=O)c2ccc(OCCSC(=S)N3CCCCC3)cc2)cc(OC)c1OC` was tested. Which IC50 (SK-N-SH [1]) did it give?
Answer: 48.4 µM

Question: And the IC50 (MGC-803)?
Answer: 41.3 µM

Question: What about the IC50 (ECa-109 cell line) of the same compound?
Answer: 38.9 µM

Question: What does the source list for `O=C(/C=C/c1cccs1)c1ccc(OCCCSC(=S)N2CCCCC2)cc1`?
Answer: IC50 (SK-N-SH [1]): 38.2 µM; IC50 (MGC-803): 41.3 µM; IC50 (ECa-109 cell line): 36.4 µM

Question: `O=C(/C=C/c1ccc(Cl)cc1)c1ccc(OCCCSC(=S)N2CCCC2)cc1` was tested. Which IC50 (SK-N-SH [1]) did it give?
Answer: 19.1 µM

Question: And the IC50 (MGC-803)?
Answer: 34.5 µM

Question: What about the IC50 (ECa-109 cell line) of the same compound?
Answer: 18.6 µM

Question: What does the source list for `CN1CCN(C(=S)SCCCOc2ccc(C(=O)/C=C/c3cc(F)cc(F)c3)cc2)CC1`?
Answer: IC50 (SK-N-SH [1]): 13.2 µM; IC50 (MGC-803): 16.3 µM; IC50 (ECa-109 cell line): 14.5 µM
